The values that follow come from patent US7196084B2, “Cdc25 phosphatase inhibitors” (Societe de Conseils de Recherches et d'Applications …, priority 2000, dated 2007).

The target of series [1] is T1, cdc25-C (Homo sapiens, UniProt P30307).
T1 sequence (P30307 1-473): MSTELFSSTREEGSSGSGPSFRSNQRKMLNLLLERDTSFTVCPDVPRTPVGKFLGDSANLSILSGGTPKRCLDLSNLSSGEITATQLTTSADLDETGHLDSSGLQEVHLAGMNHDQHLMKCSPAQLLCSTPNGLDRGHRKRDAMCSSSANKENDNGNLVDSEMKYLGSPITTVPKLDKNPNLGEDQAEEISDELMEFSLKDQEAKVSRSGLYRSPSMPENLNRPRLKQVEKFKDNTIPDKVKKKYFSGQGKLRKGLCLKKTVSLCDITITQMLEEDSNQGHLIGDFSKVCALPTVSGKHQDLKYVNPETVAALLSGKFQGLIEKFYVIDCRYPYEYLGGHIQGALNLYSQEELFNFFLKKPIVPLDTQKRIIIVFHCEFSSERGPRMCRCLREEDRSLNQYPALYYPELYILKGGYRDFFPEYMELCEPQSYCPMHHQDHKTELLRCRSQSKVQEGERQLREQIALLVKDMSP
Particulars: read-out: inhibition constant (Ki) on cdc25-C; cited from earlier work.

Series [2] deals with T2, cdc25-B2 (Homo sapiens, UniProt P30305).
T2 sequence (P30305 1-539 isoform P30305-3): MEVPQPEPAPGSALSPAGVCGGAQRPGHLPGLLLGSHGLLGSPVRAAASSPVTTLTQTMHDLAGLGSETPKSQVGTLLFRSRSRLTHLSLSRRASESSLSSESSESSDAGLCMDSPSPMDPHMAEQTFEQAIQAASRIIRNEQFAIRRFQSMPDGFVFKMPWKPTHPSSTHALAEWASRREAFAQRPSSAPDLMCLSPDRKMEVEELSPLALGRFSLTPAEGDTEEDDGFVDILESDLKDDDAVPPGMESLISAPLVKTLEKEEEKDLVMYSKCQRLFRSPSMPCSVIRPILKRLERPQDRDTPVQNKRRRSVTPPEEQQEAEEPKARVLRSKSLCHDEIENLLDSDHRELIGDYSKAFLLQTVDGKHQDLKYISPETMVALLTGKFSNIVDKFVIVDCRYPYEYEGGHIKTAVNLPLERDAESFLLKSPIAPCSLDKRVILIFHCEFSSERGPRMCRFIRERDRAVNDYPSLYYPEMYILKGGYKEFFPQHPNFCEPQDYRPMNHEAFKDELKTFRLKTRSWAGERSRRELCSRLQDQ
Particulars: read-out: inhibition constant (Ki) on cdc25-B2; cited from earlier work.

Series [3] has as its target T3, cdc25-A (Homo sapiens, UniProt P30304).
T3 sequence (P30304 1-524): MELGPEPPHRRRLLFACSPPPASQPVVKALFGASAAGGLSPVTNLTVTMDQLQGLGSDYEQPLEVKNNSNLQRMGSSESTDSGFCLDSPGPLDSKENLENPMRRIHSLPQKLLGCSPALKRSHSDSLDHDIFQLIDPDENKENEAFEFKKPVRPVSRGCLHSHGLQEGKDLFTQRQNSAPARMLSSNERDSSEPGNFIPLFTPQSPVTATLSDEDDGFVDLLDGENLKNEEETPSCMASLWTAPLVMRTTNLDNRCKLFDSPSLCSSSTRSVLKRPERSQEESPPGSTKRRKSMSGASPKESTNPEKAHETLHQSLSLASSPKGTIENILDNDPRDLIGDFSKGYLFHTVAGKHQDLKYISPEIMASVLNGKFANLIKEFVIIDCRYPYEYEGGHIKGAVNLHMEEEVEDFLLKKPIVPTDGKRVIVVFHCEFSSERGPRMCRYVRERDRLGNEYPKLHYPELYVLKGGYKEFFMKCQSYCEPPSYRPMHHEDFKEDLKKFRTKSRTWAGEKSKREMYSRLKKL
The following applies: read-out: inhibition constant (Ki) on cdc25-A; cited from earlier work.

Series [4] has as its system Mia-PaCa2 (human pancreatic cancer cells). In words: Anti-proliferative activity, WST1 colorimetric test, Mia-PaCa2. Format: cell-based. Particulars: MIA PaCa-2, treated for 96 hours, read-out: IC50 on the cell proliferation of Mia-Paca2 lines. The method, then:
(§1) c) Characterization of the Anti-proliferative Activity:
(§2) By way of example, the effect of a treatment on two lines of human Mia-Paca2 and DU145 cells with compounds of Examples 1–5 described previously will be studied. The cell lines DU145 (human prostate cancer cells) and Mia-PaCa2 (human pancreatic cancer cells) were acquired from the American Tissue Culture Collection (Rockville, Md., USA). The cells placed in 80 μL of Dulbecco's modified Eagle medium (Gibco-Brl, Cergy-Pontoise, France) completed with 10% foetal calf serum inactivated by heating (Gibco-Brl, Cergy-Pontoise, France), 50000 units/l of penicillin and 50 mg/l streptomycin (Gibco-Brl, Cergy-Pontoise, France), and 2 mM of glutamine (Gibco-Brl, Cergy-Pontoise, France) were seeded on a 96-well plate on day 0. The cells were treated on day 1 for 96 hours with increasing concentrations of each of the compounds to be tested up to 50 μg/ml. At the end of this period, quantification of cell proliferation is evaluated by a colorimetric test based on the cleavage of the tetrazolium salt WST1 by mitochondrial dehydrogenases in viable cells leading to the formation of formazan (Boehringer Mannheim, Meylan, France). These tests are carried out in duplicate with 8 determinations per concentration tested. For each compound to be tested, the values included in the linear part of the sigmoid were retained for linear regression analysis and used to estimate the inhibitory concentration IC50. The products are solubilized in dimethylsulphoxide (DMSO) at 10^−2 M and finally used in culture with 0.5% DMSO.
Background: Tetrazolium dyes change colour on reduction, which living cells bring about.

The subject of series [5] is phosphorylation of cdc2 in the Mia PaCa-2 line (endogenous cdc25C phosphatase of human cells). Briefly: Measurement of the state of cdc2 phosphorylation (western blot). Format: cell-based. The following applies: Mia-Paca2 cells treated with increasing concentrations, sampling 24 hours later, FIG. 1; menadione as reference inhibitor. The method, then: b) Measurement of the State of cdc2 Phosphorylation:
This relates to showing that the enzymatic activity of cdc25-C phosphatase is inhibited in vivo […] in the presence of selected inhibitors.
The cells of the Mia PaCa2 line are seeded at a rate of 450 000 cells in 10 cm Petri dishes in Dulbecco's modified Eagle medium completed with 10% foetal calf serum. 48 hours later, the cells are treated for 1 hour with the compound to be tested or menadione at 100 μM (reference inhibitor). The medium is renewed after washing with PBS. 24 hours after the cells are scraped and lysed in the lysis buffer (Hepes 50 mM pH 7.5; NaCl 10 mM; Triton X100 1%; glycerol 10%; MgCl2 5 mM; EDTA 1 mM; sodium orthovanadate 1 mM; protease inhibitor cocktail 1836170 Roche Diagnostics). After centrifugation at 13 000 rpm for 10 minutes at 4° C., the concentration of proteins is determined in the supernatant (Bio-Rad DC Protein assay kit) and adjusted to 10 μg. The load buffer concentrated 5 times (Tris HCl 125 mM pH 7.4; SDS 10%; glycerol 50%; bromophenol blue 0.025%; β-mercaptoethanol 7%) is added to the samples. The samples are heated for 10 minutes at 100° C. The samples are deposited in a volume of 40 μl on Tris/Glycine 12% gels (BioRad). Migration occurs over 1 hour at 180 V. The proteins are transferred onto a nitrocellulose membrane (Hybond C, Amersham) under semi-dry conditions. […]
On the technique in general: Immunoblotting shows a protein as a band on a membrane.

Series [6] has as its system DU145 (human prostate cancer cells). Briefly: Anti-proliferative activity, WST1 colorimetric test, DU145. Format: cell-based. The following applies: DU-145, treated for 96 hours, read-out: IC50 on the cell proliferation of DU-145 lines. The method, then:
as §1, §2

pIC50, pKi: −log10 of the molar value. Where only a bound is given, the exact number is not on record here.

For orientation: pKi means the negative decadic logarithm of the Ki, by convention in mol/L. The term melting point denotes the temperature of the solid-liquid transition.

On to `CC1=C(SCCO)C(=O)c2ccccc2C1=O` [Cpd5], for which the pKi in series [1] is 5.89; in series [2] it was 5.77; in series [3], 4.82.

Take `COc1cc(N(C)C)cc(CN(C)CCc2ccc([N+](=O)[O-])cc2)c1O` [Example 1, 4-(dimethylamino)-2-methoxy-6-({methyl[2-(4-nitrophenyl)ethyl]-amino}methyl)phenol]: the melting point fell in the range of 91 to 93 °C. In addition, the pIC50 in series [4] was at least 4.00. Besides, the “increase of the phosphorylated form of cdc2” value in series [5] is reported as “growing increase of the phosphorylated form of cdc2”.

Compound `CCOP(=O)(OCC)Oc1ccc(CCNC(=O)c2cc3cc(O)ccc3cc2O)cc1` [Example 13, diethyl 4-{2-[(3,7-dihydroxy-2-naphthoyl)amino]ethyl}phenylphosphate] showed a melting point of 192 to 194 °C. Besides, in series [4], the pIC50 is at least 4.00. In series [6], the pIC50 is at least 4.00.

Turning to `NS(=O)(=O)c1ccc(CCNC(=O)c2cc3cc(O)ccc3cc2O)cc1` [Example 14, N-{2-[4-(aminosulphonyl)phenyl]ethyl}-3,7-dihydroxy-2-naphthamide], the pIC50 in series [4] and in series [6] was at least 4.00 each time.

`Cc1ccc(S(=O)(=O)Nc2ccc(CCNC(=O)c3cc4cc(O)ccc4cc3O)cc2)cc1` [Example 18, 3,7-dihydroxy-N-[2-(4-{[(4-methylphenyl)sulphonyl]amino}phenyl)ethyl]-2-naphthamide] showed a melting point of 182 to 184 °C. In series [4], the pIC50 was at least 4.00.

On to `O=C(NCCc1ccc(NS(=O)(=O)c2cccc(C(F)(F)F)c2)cc1)c1cc2cc(O)ccc2cc1O` [Example 22, 3,7-dihydroxy-N-{2-[4-({[3-(trifluoromethyl)phenyl]sulphonyl}amino)phenyl]ethyl}-2-naphthamide], for which the pIC50 in series [4] and in series [6] was at least 4.00 each time.

For `CN(C)c1ccccc1NC(=O)CCCCc1ccc(/N=C(/N)c2cccs2)cc1.Cl` [Example 30, 5-(4-{[(1E)-amino(2-thienyl)methylidene]amino}phenyl)-N-[2-(dimethylamino)phenyl]pentanamide hydrochloride], the melting point is 145 to 148 °C. For the same compound, the pIC50 in series [4] was at least 4.00.

In turn, `Cc1ccc(S(=O)(=O)N2CCN(C(=O)c3cc4cc(O)ccc4cc3O)CC2)cc1` [Example 31, 3-({4-[(4-methylphenyl)sulphonyl]piperazin-1-yl}carbonyl) naphthalene-2,6-diol] displayed a melting point of 135 to 137 °C. The pIC50 in series [4] was at least 4.00.

As for `CC1=CC(=O)c2ccccc2C1=O` [menadione, reference compound], in series [5], the “increase of the phosphorylated form of cdc2” value is “increase”.
